Measurements reported in PubChem BioAssay (NCI).
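Growth conditions: 96-well plates. Treatment: test compound, 48 hours, 5 concentrations. Analysis: linear interpolation between bracketing concentrations; unreached endpoints set to highest concentration. TGI: total growth inhibition.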

What was measured:
Assay in all cases: DTP human tumour cell line panel, 48 h
HT29 colon = tested on: HT29 colon
SF-295 CNS = tested on: SF-295 CNS
COLO 205 colon = tested on: COLO 205 colon
NCI-H23 lung = tested on: NCI-H23 lung
TK-10 renal = tested on: TK-10 renal
SK-MEL-5 melanoma = tested on: SK-MEL-5 melanoma
NCI/ADR-RES ovarian = tested on: NCI/ADR-RES ovarian
SN12C renal = tested on: SN12C renal
SK-MEL-2 melanoma = tested on: SK-MEL-2 melanoma
A549 NSCLC = tested on: A549 NSCLC
DU-145 prostate = tested on: DU-145 prostate
SR leukemia = tested on: SR leukemia
SF-539 CNS = tested on: SF-539 CNS
786-0 renal = tested on: 786-0 renal
MDA-MB-435 = tested on: MDA-MB-435
NCI-H226 lung = tested on: NCI-H226 lung
RPMI-8226 leukemia = tested on: RPMI-8226 leukemia
HCC-2998 colon = tested on: HCC-2998 colon
PC-3 prostate = tested on: PC-3 prostate
K-562 leukemia = tested on: K-562 leukemia
U251 CNS = tested on: U251 CNS
OVCAR-8 ovarian = tested on: OVCAR-8 ovarian
NCI-H460 lung = tested on: NCI-H460 lung
ACHN renal = tested on: ACHN renal
LOX IMVI melanoma = tested on: LOX IMVI melanoma
SK-MEL-28 melanoma = tested on: SK-MEL-28 melanoma
IGROV1 ovarian = tested on: IGROV1 ovarian
MOLT-4 leukemia = tested on: MOLT-4 leukemia
SF-268 CNS = tested on: SF-268 CNS
SW-620 colon = tested on: SW-620 colon
HCT-116 colon = tested on: HCT-116 colon
UACC-62 melanoma = tested on: UACC-62 melanoma
EKVX NSCLC = tested on: EKVX NSCLC
KM12 colon = tested on: KM12 colon
RXF 393 renal = tested on: RXF 393 renal
BT-549 breast = tested on: BT-549 breast
CAKI-1 renal = tested on: CAKI-1 renal
MDA-N = tested on: MDA-N
UO-31 renal = tested on: UO-31 renal
CCRF-CEM leukemia = tested on: CCRF-CEM leukemia
T-47D breast = tested on: T-47D breast
OVCAR-3 ovarian = tested on: OVCAR-3 ovarian
A498 renal = tested on: A498 renal
HOP-92 NSCLC = tested on: HOP-92 NSCLC
M14 melanoma = tested on: M14 melanoma
HS 578T breast = tested on: HS 578T breast
HCT-15 colon = tested on: HCT-15 colon
UACC-257 melanoma = tested on: UACC-257 melanoma
NCI-H522 lung = tested on: NCI-H522 lung
SNB-19 CNS = tested on: SNB-19 CNS
OVCAR-5 ovarian = tested on: OVCAR-5 ovarian
HL-60(TB) leukemia = tested on: HL-60(TB) leukemia
MALME-3M melanoma = tested on: MALME-3M melanoma
OVCAR-4 ovarian = tested on: OVCAR-4 ovarian
MDA-MB-231 breast = tested on: MDA-MB-231 breast
HOP-62 NSCLC = tested on: HOP-62 NSCLC
SNB-75 CNS = tested on: SNB-75 CNS
SK-OV-3 ovarian = tested on: SK-OV-3 ovarian
MCF7 breast = tested on: MCF7 breast

SMILES: Nc1ncnn2c(C3OC(CO)C(O)C3O)ccc12 (stereo not drawn)
- TGI (HT29 colon): 1450 nM
- TGI (SF-295 CNS): 3010 nM
- TGI (COLO 205 colon): 762 nM
- TGI (NCI-H23 lung): 474 nM
- TGI (TK-10 renal): 682 nM
- TGI (SK-MEL-5 melanoma): 527 nM
- TGI (NCI/ADR-RES ovarian): 2270 nM
- TGI (SN12C renal): 2700 nM
- TGI (SK-MEL-2 melanoma): 362 nM
- TGI (A549 NSCLC): 3140 nM
- TGI (DU-145 prostate): 740 nM
- TGI (SR leukemia): 837 nM
- TGI (SF-539 CNS): 403 nM
- TGI (786-0 renal): 807 nM
- TGI (MDA-MB-435): 376 nM
- TGI (NCI-H226 lung): 866 nM
- TGI (RPMI-8226 leukemia): 467 nM
- TGI (HCC-2998 colon): 2710 nM
- TGI (PC-3 prostate): 762 nM
- TGI (K-562 leukemia): 569 nM
- TGI (U251 CNS): 4140 nM
- TGI (OVCAR-8 ovarian): 746 nM
- TGI (NCI-H460 lung): 918 nM
- TGI (ACHN renal): 645 nM
- TGI (LOX IMVI melanoma): 46.3 nM
- TGI (SK-MEL-28 melanoma): 592 nM
- TGI (IGROV1 ovarian): 562 nM
- TGI (MOLT-4 leukemia): 455 nM
- TGI (SF-268 CNS): 1990 nM
- TGI (SW-620 colon): 35100 nM
- TGI (HCT-116 colon): 151 nM
- TGI (UACC-62 melanoma): 358 nM
- TGI (EKVX NSCLC): 4230 nM
- TGI (KM12 colon): 677 nM
- TGI (RXF 393 renal): 667 nM
- TGI (BT-549 breast): 789 nM
- TGI (CAKI-1 renal): 486 nM
- TGI (MDA-N): 693 nM
- TGI (UO-31 renal): 494 nM
- TGI (CCRF-CEM leukemia): 627 nM
- TGI (T-47D breast): 6930 nM
- TGI (OVCAR-3 ovarian): 520 nM
- TGI (A498 renal): 539 nM
- TGI (HOP-92 NSCLC): 431 nM
- TGI (M14 melanoma): 413 nM
- TGI (HS 578T breast): 275 nM
- TGI (HCT-15 colon): 771 nM
- TGI (UACC-257 melanoma): 417 nM
- TGI (NCI-H522 lung): 1970 nM
- TGI (SNB-19 CNS): 25400 nM
- TGI (OVCAR-5 ovarian): 4540 nM
- TGI (HL-60(TB) leukemia): 328 nM
- TGI (MALME-3M melanoma): 285 nM
- TGI (OVCAR-4 ovarian): 582 nM
- TGI (MDA-MB-231 breast): 1110 nM
- TGI (HOP-62 NSCLC): 1480 nM
- TGI (SNB-75 CNS): 866 nM

SMILES: O=C1/C(=C/c2ccccc2O)N=C(c2ccccc2)N1C1Nc2cc3c(cc2S1)NC(N1C(=O)/C(=C/c2ccccc2O)N=C1c1ccccc1)S3 (stereo not drawn)
- TGI (HT29 colon): > 100000 nM
- TGI (SF-295 CNS): > 100000 nM
- TGI (NCI-H23 lung): > 100000 nM
- TGI (TK-10 renal): > 100000 nM
- TGI (SK-MEL-5 melanoma): > 100000 nM
- TGI (NCI/ADR-RES ovarian): > 100000 nM
- TGI (SK-MEL-2 melanoma): > 100000 nM
- TGI (DU-145 prostate): > 100000 nM
- TGI (SR leukemia): > 100000 nM
- TGI (SF-539 CNS): > 100000 nM
- TGI (786-0 renal): > 100000 nM
- TGI (MDA-MB-435): > 100000 nM
- TGI (NCI-H226 lung): > 100000 nM
- TGI (RPMI-8226 leukemia): > 100000 nM
- TGI (HCC-2998 colon): > 100000 nM
- TGI (PC-3 prostate): > 100000 nM
- TGI (K-562 leukemia): > 100000 nM
- TGI (U251 CNS): > 100000 nM
- TGI (OVCAR-8 ovarian): > 100000 nM
- TGI (NCI-H460 lung): > 100000 nM
- TGI (ACHN renal): > 100000 nM
- TGI (LOX IMVI melanoma): > 100000 nM
- TGI (SK-MEL-28 melanoma): > 100000 nM
- TGI (IGROV1 ovarian): > 100000 nM
- TGI (MOLT-4 leukemia): > 100000 nM
- TGI (SF-268 CNS): 59600 nM
- TGI (SW-620 colon): > 100000 nM
- TGI (HCT-116 colon): > 100000 nM
- TGI (EKVX NSCLC): > 100000 nM
- TGI (KM12 colon): > 100000 nM
- TGI (RXF 393 renal): 70000 nM
- TGI (CAKI-1 renal): > 100000 nM
- TGI (MDA-N): > 100000 nM
- TGI (UO-31 renal): > 100000 nM
- TGI (CCRF-CEM leukemia): > 100000 nM
- TGI (T-47D breast): > 100000 nM
- TGI (OVCAR-3 ovarian): > 100000 nM
- TGI (A498 renal): > 100000 nM
- TGI (HOP-92 NSCLC): 15000 nM
- TGI (M14 melanoma): > 100000 nM
- TGI (HS 578T breast): > 100000 nM
- TGI (SK-OV-3 ovarian): > 100000 nM
- TGI (MCF7 breast): > 100000 nM
- TGI (HCT-15 colon): > 100000 nM
- TGI (UACC-257 melanoma): > 100000 nM
- TGI (NCI-H522 lung): > 100000 nM
- TGI (OVCAR-5 ovarian): > 100000 nM
- TGI (HL-60(TB) leukemia): > 100000 nM
- TGI (OVCAR-4 ovarian): > 100000 nM
- TGI (MDA-MB-231 breast): > 100000 nM
- TGI (HOP-62 NSCLC): > 100000 nM
